Test results as given in patent US9200269B2, “β-glucuronidase inhibitor” (priority 2007, dated 2015).

How the values were obtained:
[1] = Urine catching pad urine addition test, urine odor intensity; parameters: species or system human; conditions: 30° C.
Description: (§1) Sensory evaluation of odor was performed by six panelists, the evaluation was based on a six-level odor intensity indication method in which the odor intensity was indicated with an evaluation score of 0 to 5. In the evaluation score, “0” indicates no odor, “1” indicates odor which can be slightly perceived (detection threshold), “2” indicates odor which can be perceived to be urine odor but is weak (perception threshold), “3” indicates odor which can be easily perceived to be urine odor, “4” indicates strong urine odor, and “5” indicates extreme urine odor. The odor intensity was determined at an interval of 0.5.
Specifically, the urine catching pad was prepared by replacing only a water-absorbent polymer in the commercially available urine catching pad “Relief urine catching pad safe absorption (Anshin-Kyusyu)” (manufactured by Kao Corporation) with a water-absorbent polymer wherein the β-glucuronidase inhibitor of the present invention was added. The added amount of the inhibitor to the water-absorbent polymer was 1 wt. % with respect to the water-absorbent polymer, and was equivalent to 1.5 g/m^2 with respect to the urine catching pad.
A urine addition test was performed by using test pieces having dimensions of 19 cm by 7 cm being cut out from the urine catching pad, and using a test piece containing no β-glucuronidase inhibitor as a blank. The test was performed as follows: 30 g of human urine (a mixture of urine from five humans) were added to these test pieces cut out from the urine catching pad, and the urine odor intensity after 1 hour, after 24 hours, and after 48 hours under preservation at 30° C. was evaluated by five panelists based on the six-level odor intensity indication method as described in the item (2) of Reference Example 2.

[2] = target: T1, β-glucuronidase (Escherichia coli, UniProt P05804); assay: Suppression of generation of urine odor in enzyme-added urine, sensory evaluation; conditions: 0.01 wt %; human urine plus enzyme, 25° C., 2 hours; six panelists
T1 construct: purchased Sigma-Aldrich Corporation
T1 sequence (P05804 whole entry): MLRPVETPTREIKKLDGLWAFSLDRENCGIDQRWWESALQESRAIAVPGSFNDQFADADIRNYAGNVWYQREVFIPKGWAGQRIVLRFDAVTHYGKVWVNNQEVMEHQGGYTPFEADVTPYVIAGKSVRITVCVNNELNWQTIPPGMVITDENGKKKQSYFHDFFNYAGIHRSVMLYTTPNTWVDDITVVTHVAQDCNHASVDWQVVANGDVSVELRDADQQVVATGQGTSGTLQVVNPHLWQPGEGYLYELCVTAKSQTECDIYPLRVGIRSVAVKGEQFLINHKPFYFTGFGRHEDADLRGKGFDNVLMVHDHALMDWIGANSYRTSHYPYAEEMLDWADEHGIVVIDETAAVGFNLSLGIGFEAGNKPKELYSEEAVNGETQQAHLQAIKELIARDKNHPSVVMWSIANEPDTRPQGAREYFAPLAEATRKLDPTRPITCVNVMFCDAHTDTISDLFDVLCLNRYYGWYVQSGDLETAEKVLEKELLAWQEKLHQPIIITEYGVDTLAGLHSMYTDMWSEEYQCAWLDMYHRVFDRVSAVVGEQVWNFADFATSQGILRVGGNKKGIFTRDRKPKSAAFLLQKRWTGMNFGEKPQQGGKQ
Description: as §1
360 μL of a human urine sample (a mixture of urine from five humans), which had been subjected to a microbe-removing operation with a 0.2-μm filter immediately after the collection, and […] of a 10 wt % 8-cyclohexadecen-1-one DPG solution were added to a bottle γ-ray sterilized in advance, and subsequently 40 μL of a β-glucuronidase aqueous solution adjusted to 20 units/mL was added and mixed. The mixture was incubated in a thermostat bath at 25° C. and allowed to react for 2 hours. The concentration of 8-cyclohexadecen-1-one in the reaction solution was 0.01 wt %. […]

[3] = target: T1, β-glucuronidase; assay: Suppression of production of volatile compound from urine with added β-glucuronidase (GC-MS); assay type: biochemical; conditions: 0.01 wt %; human urine plus enzyme, 25° C., 22 hours
Description: 9.9 mL of a human urine sample (a mixture of urine from five humans), from which microorganisms were filtered with a 0.2-μm filter (Millex GV manufactured by Millipore Corporation) were added to a bottle which had been preliminarily subjected to γ-ray sterilization immediately after the collection, and subsequently 0.1 mL of an Escherichia coli-derived β-glucuronidase Type VII-A (purchased from Sigma-Aldrich Corporation) aqueous solution adjusted to 250 units/mL was added and mixed. The mixture was incubated in a thermostat bath at 25° C. and allowed to react for 22 hours. An initial urine sample prepared by adding 0.1 mL of sterilized ion exchanged water as substitution of the enzyme solution, was similarly incubated in a thermostat bath for 22 hours.
9.9 mL of a human urine sample (a mixture of urine from five humans) which had been subjected to a microbe-removing operation with a 0.2-μm filter immediately after the collection and 10 μL of a 10 wt % 8-cyclohexadecen-1-one DPG solution were added to a bottle γ-ray sterilized in advance, and subsequently 0.1 mL of a […] aqueous solution adjusted to 250 units/mL was added and mixed. The mixture was incubated in a thermostat bath at 25° C. and allowed to react for 22 hours. The concentration of 8-cyclohexadecen-1-one in the reaction solution was 0.01 wt %. Further, a product prepared by adding 0.1 mL of an enzyme solution to 9.9 mL of the microbe-removed urine sample was used as a control, a product prepared by adding 0.1 mL of ion exchanged water to 9.9 mL of the microbe-removed urine sample was used as a blank, and the respective products were allowed to react for 22 hours in the same manner.
After the completion of the reaction, to 9 mL of the reaction solution, a benzyl benzoate ethanol solution was added as an internal standard. The mixture was extracted twice with 10 mL of diethyl ether. The extracted solutions were combined and dried over anhydrous magnesium sulfate. After drying, a solid was separated by filtration, and the filtrate was concentrated with a rotary evaporator to prepare a sample for measurement.
Measurement was performed with a gas chromatograph mass spectrometer. The production amount of the volatile compound detected was calculated as a peak area ratio with respect to an internal standard. The production suppression rate for each of volatile components was determined by using the obtained value in accordance with the following equation. Production amount of control=Peak area ratio of control—Peak area ratio of blank Production amount of sample=Peak area ratio of sample−Peak area ratio of blank Production suppression rate (%)=[(Production amount of control −Production amount of sample)/Production amount of control]×100

[4] = six-level score 0 to 5, average of five panelists, inhibitor 1 wt. % of water-absorbent polymer, 30 g human urine

## O=C1CCCCCCC=CCCCCCCC1 [8-Cyclohexadecen-1-one, 8-cyclohexadecen-1-one]
[1]; after 24 or 48 hours as stated
  Suppression of the increase of urine odor in urine catching pad compared to the blank (result in words): even after 48 hours, was confirmed
[1]; [4]
  Urine odor intensity After 1 hour: 1.3
  Urine odor intensity After 24 hours: 1.5
  Urine odor intensity After 48 hours: 1.9
[2]
  Generation of urine odor, sensory evaluation (result in words, FIG. 5): sensuously suppressed the generation of urine odor
[3]
  Production of phenol-based compounds and indole from urine (result in words): suppressed the production of all of phenol-based compounds and indole
  Production suppression rate (%) of 1,3-Benzenediol: 100%
  Production suppression rate (%) of 1,4-Benzenediol: 73%
  Production suppression rate (%) of 2-Methoxy-1,3-benzenediol: 73%
  Production suppression rate (%) of 4-Vinyl-2-methoxyphenol: 55%
  Production suppression rate (%) of 4-Vinylphenol: 57%
  Production suppression rate (%) of Indole: 57%
  Production suppression rate (%) of Phenol: 70%
  Production suppression rate (%) of p-Cresol: 63%
